Results on 39 compounds are retold here after patent US10676446B2, “Bicyclic quinazolinone derivatives” (Hoffmann-La Roche Inc., priority 2015, dated 2020).

The target of the assay is human ATX (autotaxin, ENPP2), His-tagged (Homo sapiens (Human), UniProt Q13822). The assay is described as follows: Human ATX enzyme inhibition assay (fluorescence quenching, MR121 substrate). The format is biochemical. The following applies: 30 nM ATX, 1 μM MR121 substrate, 30° C., pH 8.0. As for the experimental part: Human ATX Enzyme Inhibition Assay
ATX inhibition was measured by a fluorescence quenching assay using a specifically labeled substrate analogue (MR121 substrate). To obtain this MR121 substrate, BOC and TBS protected 6-amino-hexanoic acid (R)-3-({2-[3-(2-{2-[2-(2-amino-ethoxy)-ethoxy]-ethoxy}-ethoxy)-propionylamino]-ethoxy}-hydroxy-phosphoryloxy)-2-hydroxy-propyl ester (Ferguson et al., Org. Lett. 2006, 8, 2023) was labeled with MR121 fluorophore [CAS RN 185308-24-1], 1-(3-carboxypropyl)-11-ethyl-1,2,3,4,8,9,10,11-octahydro-dipyrido[3,2-b:2′,3′-i]phenoxazin-13-ium) on the free amine of the ethanolamine side and then, after deprotection, subsequently with tryptophan on the side of the aminohexanoic acid.
Assay working solutions were made as follows:
Assay buffer (50 mM Tris-HCl, 140 mM NaCl, 5 mM KCl, 1 mM CaCl2, 1 mM MgCl2, 0.01% Triton-X-100, pH 8.0;
ATX solution: ATX (human His-tagged) stock solution (1.08 mg/mL in 20 mM bicine, pH 8.5, 0.15 M NaCl, 10% glycerol, 0.3% CHAPS, 0.02% NaN3), diluted to 1.4-2.5× final concentration in assay buffer;
MR121 substrate solution: MR121 substrate stock solution (800 μM MR121 substrate in DMSO), diluted to 2-5× final concentration in assay buffer.
Test compounds (10 mM stock in DMSO, 8 μL) were obtained in 384 well sample plates (Corning Costar #3655) and diluted with 8 μL DMSO. Row-wise serial dilutions were made by transferring 8 μL cpd solution to the next row up to row O. The compound and control solutions were mixed five times and 2 μL were transferred to 384 well assay plates (Corning Costar #3702). Then, 15 μL of 41.7 nM ATX solution was added (30 nM final concentration), mixed five times and then incubated for 15 minutes at 30° C. 10 μL of MR121 substrate solution was added (1 μM final concentration), mixed 30 times and then incubated for 15 minutes at 30° C.
The term IC50 denotes the point on the concentration scale where inhibition reaches its midpoint. Higher therefore signals lower potency. In turn, `COc1cc(C#N)ccc1CNC(=O)Cn1cnc2ccc(N3CCN(C(C)=O)CC3)cc2c1=O` [Example 32] had an IC50 of 0.089 µM.
Next, `O=C(Cn1cnc2ccc(N3CCN(C(=O)C4CCCC4)CC3)cc2c1=O)NCc1ccc(Cl)c(Cl)c1` [Example 64]: 0.004 µM.
The same measure for `CN(Cc1ccc(C#N)c(Cl)c1)C(=O)Cn1cnc2ccc(C3CCN(C(=O)C4CC4)CC3)cc2c1=O` [Example 136]: 0.001 µM.
Next, `CC(=O)N1CCN(c2ccc3ncn(CC(=O)NC(C)c4ccc(Cl)cc4)c(=O)c3c2)CC1` (stereo not drawn) [Example 13]: 0.478 µM.
For `CN(Cc1ccc(C#N)c(Cl)c1)C(=O)Cn1cnc2ccc(C3CCN(C(=O)C4CCO4)CC3)cc2c1=O` (stereo not drawn) [Example 141], inhibition was half-maximal at 0.002 µM (IC50).
The same measure for `O=C(Cn1cnc2ccc(N3CCN(CCO)CC3)cc2c1=O)NCc1ccc(Cl)c(Cl)c1` [Example 94, N-[(3,4-Dichlorophenyl)methyl]-2-[6-[4-(2-hydroxyethyl)piperazin-1-yl]-4-oxoquinazolin-3-yl]acetamide]: 0.067 µM; for `CC(=O)N1CCN(c2ccc3ncn(CC(=O)N[C@H](CC(N)=O)c4ccc(Cl)cc4)c(=O)c3c2)CC1` [Example 27]: 0.34 µM.
As to `CC(=O)N1CCN(c2ccc3ncn(CC(=O)N4CCC[C@@H]4c4ccc(C)cc4)c(=O)c3c2)CC1` [Example 48], inhibition was half-maximal at 1.58 µM (IC50). This IC50 is about 4.6-fold higher than that of the compound before.
The same measure for `CO[C@@H](C)C(=O)N1CCC(c2ccc3ncn(CC(=O)N(C)Cc4ccc(Cl)c(Cl)c4)c(=O)c3c2)CC1` [Example 168]: 0.027 µM; for `CO[C@@H](C)C(=O)N1CCC(c2ccc3ncn(CC(=O)N(C)Cc4ccc(C#N)c(Cl)c4)c(=O)c3c2)CC1` [Example 159]: 0.001 µM.
Next, `CC(=O)N1CCN(c2ccc3ncn(CC(=O)N4CCCC4c4ccc(Cl)cc4)c(=O)c3c2)CC1` (stereo not drawn) [Example 47]: 0.341 µM; `COCCNC(=O)N1CCN(c2ccc3ncn(CC(=O)NCc4ccc(Cl)c(Cl)c4)c(=O)c3c2)CC1` [Example 85]: 0.061 µM.
Next, `CC(=O)N1CCN(c2ccc3ncn(CC(=O)NCc4ccnc(Cl)c4)c(=O)c3c2)CC1` [Example 36]: 0.346 µM; `O=C(Cn1cnc2ccc(N3CCN(C(=O)c4ccno4)CC3)cc2c1=O)NCc1ccc(Cl)c(Cl)c1` [Example 67]: 0.015 µM.
`CN(Cc1ccc(C#N)c(Cl)c1)C(=O)Cn1cnc2ccc(C3CCN(S(C)(=O)=O)CC3)cc2c1=O` [Example 145, N-[(3-Chloro-4-cyanophenyl)methyl]-N-methyl-2-[6-(1-methylsulfonylpiperidin-4-yl)-4-oxoquinazolin-3-yl]acetamide] displayed an IC50 of 0.082 µM. This IC50 is about 5.5-fold higher than that of the compound before.
The compound `CN(Cc1ccc(Cl)c(Cl)c1)C(=O)Cn1cnc2ccc(C3CCN(C(=O)C(C)(C)O)CC3)cc2c1=O` [Example 172] showed an IC50 of 0.021 µM.
`CN(Cc1ccc(Cl)c(Cl)c1)C(=O)Cn1cnc2ccc(C3CCN(C(=O)C4(O)CCC4)CC3)cc2c1=O` [Example 176] showed an IC50 of 0.046 µM.
Next, `CC(C)OCC(=O)N1CCC(c2ccc3ncn(CC(=O)N(C)Cc4ccc(C#N)c(Cl)c4)c(=O)c3c2)CC1` [Example 135]: 0.001 µM.
On to `O=C(Cn1cnc2ccc(N3CCN(Cc4cnc[nH]4)CC3)cc2c1=O)NCc1ccc(Cl)c(Cl)c1` [Example 101], for which inhibition was half-maximal at 0.064 µM (IC50).
`O=C(Cn1cnc2ccc(N3CCN(C(=O)Nc4cccnc4)CC3)cc2c1=O)NCc1ccc(Cl)c(Cl)c1` [Example 87] registered an IC50 of 0.076 µM. The IC50 values of the last two compounds are within 1.5-fold of each other.
Next, `CN(Cc1ccc(C#N)c(Cl)c1)C(=O)Cn1cnc2ccc(C3CCN(C(=O)CO)CC3)cc2c1=O` [Example 131, N-[(3-Chloro-4-cyanophenyl)methyl]-2-[6-[1-(2-hydroxyacetyl)piperidin-4-yl]-4-oxoquinazolin-3-yl]-N-methylacetamide]: 0.001 µM; `COCCC(=O)N1CCC(c2ccc3ncn(CC(=O)N(C)Cc4ccc(C#N)c(Cl)c4)c(=O)c3c2)CC1` [Example 134]: 0.001 µM.
`CNC(=O)C[C@@H](NC(=O)Cn1cnc2ccc(N3CCN(C(C)=O)CC3)cc2c1=O)c1ccc(Cl)cc1` [Example 1, (3R)-3-[[2-[6-(4-Acetylpiperazin-1-yl)-4-oxoquinazolin-3-yl]acetyl]amino]-3-(4-chlorophenyl)-N-methylpropanamide]: inhibition was half-maximal at 0.269 µM (IC50).
As for `CC(=O)N1CCN(c2ccc3ncn(CC(=O)NCc4ccc([N+](=O)[O-])cc4)c(=O)c3c2)CC1` [Example 21], the IC50 was determined as 0.052 µM.
Next, `CN(Cc1ccc(C#N)c(Cl)c1)C(=O)Cn1cnc2ccc(C3CCN(C(=O)CC#N)CC3)cc2c1=O` [Example 154, N-[(3-Chloro-4-cyanophenyl)methyl]-2-[6-[1-(2-cyanoacetyl)piperidin-4-yl]-4-oxoquinazolin-3-yl]-N-methylacetamide]: 0.002 µM; `CCN(Cc1ccc(Cl)c(Cl)c1)C(=O)Cn1cnc2ccc(N3CCN(C(C)=O)CC3)cc2c1=O` [Example 116, 2-[6-(4-Acetylpiperazin-1-yl)-4-oxoquinazolin-3-yl]-N-[(3,4-dichlorophenyl)methyl]-N-ethylacetamide]: 0.016 µM; `CC(=O)N1CCN(c2ccc3ncn(CC(=O)NCc4ccc(Cl)nc4)c(=O)c3c2)CC1` [Example 11]: 0.119 µM.
Next, `CN(Cc1ccc(Cl)c(Cl)c1)C(=O)Cn1cnc2ccc(N3CCN(C(=O)C4CC(F)C4)CC3)cc2c1=O` (stereo not drawn) [Example 74]: 0.007 µM; `CC(=O)N1CCN(c2ccc3ncn(CC(=O)NCc4ccc(Cl)cc4Cl)c(=O)c3c2)CC1` [Example 23]: 0.072 µM.
The same measure for `CN(Cc1ccc(Cl)c(Cl)c1)C(=O)Cn1cnc2ccc(N3CCN(CC4COC4)CC3)cc2c1=O` [Example 106]: 0.132 µM; for `CC(=O)N1CCN(c2ccc3ncn(CC(=O)N(C)Cc4ccc(Cl)cc4)c(=O)c3c2)CC1` [Example 43]: 0.112 µM; for `CN(Cc1ccc(C#N)c(Cl)c1)C(=O)Cn1cnc2ccc(C3CCN(C(=O)C4CC(Cl)C4)CC3)cc2c1=O` (stereo not drawn) [Example 139]: 0.018 µM.
In turn, `COCC(=O)N1CCN(c2ccc3ncn(CC(=O)NCc4ccc(Cl)c(Cl)c4)c(=O)c3c2)CC1` [Example 61] returned an IC50 of 0.016 µM.
As to `CC(=O)N1CCN(c2ccc3ncn(CC(=O)N(C)Cc4cc(Cl)nc(Cl)c4)c(=O)c3c2)CC1` [Example 46], the midpoint of inhibition, the IC50, lay at 0.184 µM.
Next, `CC(=O)N1CCC(c2ccc3ncn(CC(=O)NCc4cc(Cl)cc(C(F)(F)F)c4)c(=O)c3c2)CC1` [Example 161, 2-[6-(1-Acetylpiperidin-4-yl)-4-oxoquinazolin-3-yl]-N-[[3-chloro-5-(trifluoromethyl)phenyl]methyl]acetamide]: 0.028 µM; `CC(=O)N1CCC(c2ccc3ncn(CC(=O)NCc4cc(Cl)cc(Cl)c4)c(=O)c3c2)CC1` [Example 164]: 0.025 µM.
Next, `CN(Cc1ccc(Cl)c(Cl)c1)C(=O)Cn1cnc2ccc(N3CCN(C(=O)C4(C)COC4)CC3)cc2c1=O` [Example 80]: 0.012 µM; `CC(=O)N1CCCN(c2ccc3ncn(CC(=O)NCc4ccc(C(F)(F)F)cc4)c(=O)c3c2)CC1` [Example 119]: 0.649 µM; `N#Cc1ccc(CNC(=O)Cn2cnc3ccc(N4CCN(C(=O)C5COC5)CC4)cc3c2=O)c(Cl)c1` [Example 113, N-[(2-Chloro-4-cyanophenyl)methyl]-2-[6-[4-(oxetane-3-carbonyl)piperazin-1-yl]-4-oxoquinazolin-3-yl]acetamide]: 0.202 µM.
